Type in all cases: in vivo
The test system of assay [1] is Yellow fever mosquito (Aedes aegyptii). Put plainly: Test B.4 Control of yellow fever mosquito, curative ultrasonic spraying of larvae in liquid diet. Conditions: 2 DAT. The procedure: Test B.4 Control of Yellow fever mosquito (Aedes aegyptii) Test principle: Curative ultrasonic spraying of larvae in liquid diet
For evaluating control of Aedes aegyptii, the assay was conducted in microtiter plates (MTP's), wherein each well was filled with 0.2 ml of a Aedes aegyptii suspension of 5 to 15 freshly hatched larvae in a liquid diet of 200 ppm yeast in water, prepared directly before spraying.
The compounds were formulated at desired concentration using a solution containing 75% v/v water and 25% v/v DMSO. Different concentrations of formulated compounds were applied at 2.5 μl, using a ultrasonic spraying, at two replications.
The MTPs were sealed with the matching lids in a climatized test chamber at about 28° C.+1° C. and about 80+5% RH (relative humidity) and at 3500+500 lux of fluorescent light.
Assessment was made 2 days after treatment (DAT) using as criterion movement of the larvae. Valid assessment values were at level 0, 50 and 100, wherein 100 indicates no movement, 50 indicates few movement and 0 indicates moderate to high movement.

In assay [2] the test system is Tobacco Budworm (Heliothis virescens). Put plainly: Test B.6 Control of tobacco budworm, eggs on sprayed insect diet in 96-well microtiter plates. As to conditions: 5 days. How it is done: Test B.6 Control of Tobacco Budworm (Heliothis virescens)
For evaluating control of tobacco budworm (Heliothis virescens) the test unit consisted of 96-well-microtiter plates containing an insect diet and 15-25 H. virescens eggs.
The compounds or mixtures were formulated using a solution containing 75% water and 25% DMSO. Different concentrations of formulated compounds or mixtures were sprayed onto the insect diet at 10 μl, using a custom built micro atomizer, at two replications.
(§1) For experimental mixtures in these tests identical volumes of both mixing partners at the desired concentrations respectively, were mixed together.
After application, microtiter plates were incubated at 28±1° C., 80±5% RH for 5 days. Egg and larval mortality was then visually assessed.

Assay [3] has as its system Boll Weevil (Anthonomus grandis). Put plainly: Test B.2 Control of boll weevil, eggs on sprayed insect diet in 24-well microtiter plates. Conditions: 5 days. How it is done: Test B.2 Control of Boll Weevil (Anthonomus grandis)
For evaluating control of boll weevil (Anthonomus grandis) the test unit consisted of 24-well-microtiter plates containing an insect diet and 20-30 A. grandis eggs.
The compounds or mixtures were formulated using a solution containing 75% water and 25% DMSO. Different concentrations of formulated compounds or mixtures were sprayed onto the insect diet at 20 μl, using a custom built micro atomizer, at two replications.
as §1
After application, microtiter plates were incubated at about 23±1° C. and about 50±5% RH for 5 days. Egg and larval mortality was then visually assessed.

In a further assay the test system is Caenorhabditis elegans. Put plainly: Test B.5 Control of Caenorhabditis elegans, curative ultrasonic spraying of nematodes in liquid diet. Conditions: 4 DAT. How it is done:
Test B.5 Control of Caenorhabditis elegans Test principle: Curative ultrasonic spraying of nematodes in liquid diet
For evaluating control of Caenorhabditis elegans the test unit consisted of microtiter plates (MTP), wherein each well was filled with 0.18 ml of a C. Elegans suspension containing 60 to 100 individuals of C. elegans at mixed life stages in a liquid diet.
The compounds were formulated at desired concentration using a solution containing 75% v/v water and 25% v/v DMSO. Different concentrations of formulated compounds were applied at 5 μl by ultrasonic spraying onto the liquid diet, at two replications. After application, the treated microtiterplates were incubated in a climatized test chamber at temperature of about 18+/−1° C. and 70+/−5% RH in the dark.
Assessment was made 4 days after treatment (DAT) using as criterion movement of nematodes. Valid assessment values were at level 0, 50 and 100, wherein 100 indicates no movement, 50 indicates few movement and 0 indicates moderate to high movement.

Assay [4] deals with Vetch Aphid (Megoura viciae). Put plainly: Test B.1 Control of vetch aphid, sprayed broad bean leaf disks in 24-well microtiter plates. Conditions: 5 days. How it is done: Test B.1 Control of Vetch Aphid (Megoura viciae)
For evaluating control of vetch aphid (Megoura viciae) through contact or systemic means the test unit consisted of 24-well-microtiter plates containing broad bean leaf disks.
The compounds or mixtures were formulated using a solution containing 75% water and 25% DMSO. Different concentrations of formulated compounds or mixtures were sprayed onto the leaf disks at 2.5 μl, using a custom built micro atomizer, at two replications.
For experimental mixtures in these tests identical volumes of both mixing partners at the desired concentrations respectively, were mixed together. After application, the leaf disks were air-dried and 5-8 adult aphids placed on the leaf disks inside the microtiter plate wells. The aphids were then allowed to suck on the treated leaf disks and incubated at about 23±1° C. and about 50±5% RH (relative humidity) for 5 days. Aphid mortality and fecundity was then visually assessed.

The subject of assay [5] is Green Peach Aphid (Myzus persicae). Put plainly: Test B.3 Control of green peach aphid, systemic, liquid artificial diet under membrane. As to conditions: 3 days.
Source text: Test B.3 Control of Green Peach Aphid (Myzus persicae)
For evaluating control of green peach aphid (Myzus persicae) through systemic means the test unit consisted of 96-well-microtiter plates containing liquid artificial diet under an artificial membrane.
The compounds or mixtures were formulated using a solution containing 75% water and 25% DMSO. Different concentrations of formulated compounds or mixtures were pipetted into the aphid diet, using a custom built pipetter, at two replications.
as §1
After application, 5 -8 adult aphids were placed on the artificial membrane inside the microtiter plate wells. The aphids were then allowed to suck on the treated aphid diet and incubated at about 23±1° C. and about 50±5% RH for 3 days. Aphid mortality and fecundity was then visually assessed.

Where [6] appears, read: alphacypermethrin alone, 0.4 ppm.
The mark [7] stands for this setting: alpha cypermethrin alone, 10 ppm.

From patent US20140221201A1, “INSECTICIDAL ACTIVE MIXTURES COMPRISING ARYLQUINAZOLINONE COMPOUNDS” (priority 2011, published 2014) come the findings set out here.

In assay [1] (spinosad alone, 2 ppm), spinosad had an Average control % of 0%.
Turning to `Cc1cc(F)c(-n2cnc3ccc(F)cc3c2=O)cc1[S+]([O-])CC(F)(F)F` (stereo not drawn) [CE.I.31, 6-Fluoro-3-[2-fluoro-4-methyl-5-2(2,2,2-trifluoroethanesulfinyl)-phenyl]-3H-quinazolin-4-one], in assay [2] (CE.I.31 alone, 2000 ppm), the Average control % was 0%.
For the compound `Cc1cc(F)c(-n2cnc3ccccc3c2=O)cc1[S+]([O-])CC(F)(F)F` (stereo not drawn) [CE.I.35, 2-(2,2,2-trifluoroethylsufinyl)-4-(4-oxo-quinazolin-3-yl)-5-fluoro-toluol], the Average control % came to 0% in assay [1] (CE.I.35 alone, 4 ppm); 0% in assay [1] (CE.I.35 alone, 500 ppm); 0% in assay [1] (CE.I.35 alone, 2500 ppm); 0% in assay [3] (CE.I.35 alone, 500 ppm); 0% in assay [3] (CE.I.35 alone, 2500 ppm).
For the compound abamectin, in assay [1] (abamectin alone, 2 ppm), the Average control % came out at 0%.
In the case of `Cc1cc(F)c(-n2cnc3ccccc3c2=O)cc1SCC(F)(F)F` [CE.I.34, 2-(2,2,2-trifluoroethylsufanyl)-4-(4-oxo-quinazolin-3-yl)-5-fluoro-toluol], the Average control % in the assay on Caenorhabditis elegans (CE.I.34 alone, 100 ppm) is 0%; in assay [4] (CE.I.34 alone, 100 ppm), 0%; in assay [5] (CE.I.34 alone, 4 ppm) it was 0%; in assay [3] (CE.I.34 alone, 100 ppm) it was 0%.
The compound `Cc1cc(C)c(C2=C(OC(=O)CC(C)(C)C)C3(CCCC3)OC2=O)c(C)c1` [Spiromesifen, spiromesifen] had an Average control % in assay [3] (spiromesifen alone, 500 ppm) of 0%.
`CCOCn1c(-c2ccc(Cl)cc2)c(C#N)c(Br)c1C(F)(F)F` [Chlorfenapyr, chlorfenapyr] came in with an Average control % with Caenorhabditis elegans (chlorfenapyr alone, 10 ppm) of 0%.
Consider `CCC(C)(C)C(=O)OC1=C(c2ccc(Cl)cc2Cl)C(=O)OC12CCCCC2` [Spirodiclofen, spirodiclofen], for which the Average control % in assay [2] (spirodiclofen alone, 3.2 ppm) worked out at 0%.
Take `CC1(C)C(C=C(Cl)Cl)C1C(=O)OC(C#N)c1cccc(Oc2ccccc2)c1` (stereo not drawn) [Alpha cypermethrin, alpha-cypermethrin]: the Average control % in assay [2] (setting [6]) turned out to be 0%; in assay [1] (setting [7]) it was 0%; in assay [4] (alpha cypermethrin alone, 2 ppm) it was 0%; in assay [5] (setting [7]), 0%; in assay [3] (setting [7]), 0%; in assay [3] (setting [6]) it was 0%.
